According to US20260125654A1, “Method for Producing a Three-Dimensional Human Multiple-Myeloma Model” (Etablissement Français du Sang, priority 2022, published 2026):

System: plasma cells in MM spheroids
Test: Viability of plasma cells in 3D MM spheroids treated with melphalan, flow cytometry (CD38/CD138/DAPI)
Format: cell-based, human
Settings: for viability at 10 µM: Homo sapiens, 10 μM melphalan
Experimental: Following a total bone marrow sample at diagnosis in patients with multiple myeloma (MM), MM plasma cells are separated and then counted in a Malassez cell. The cells were then used freshly for cocultures or were frozen in CRYOSTOR. The MM total marrow cells coming from another patient were seeded according to the initial number thereof and the cells were incubated at a temperature of 37° C. and under an atmosphere with 5% carbon dioxide for about 2 weeks. Once confluence was reached, mesenchymal stem/stromal cells (MSCs), endothelial cells and endothelial progenitors were treated with trypsin and counted.
The MSC cells, the endothelial cells and the endothelial progenitors treated with trypsin and the fresh or thawed plasmocytes in a ratio of 1 MSC per 2 plasmocytes were suspended on ULA (Ultra-Low adherence) plates in 50 μL of RPMI medium (10% FCS, 1% PS). The cells were then incubated at a temperature of 37° C. and an atmosphere with 5% carbon dioxide with stirring. 150 μL of RPMI medium were added after incubation for 24 h and the medium was renewed 2 times per week, removing 100 μL of supernatant.
A treatment with […] melphalan was added to the spheroid culture medium 48 h after the formation thereof and the culture was continued for 14 days. The selection method was supplemented by a control situation, without the presence of a drug candidate. Part of the cultures was stopped after 7 (D+7) and 11 (D+11) days to analyze the viability of the plasma cells, whereas the rest of the cultures was stopped after 14 days of culture (D+14). Spheroid cells were mechanically dissociated at 1400 rpm with AccuMax® and then transferred into a tube suitable for flow cytometry and washed with PBS and labeled with the CD38 FITC and CD138 AF700 specific antibodies in MACS buffer. The cells were then incubated at 4° C. for 30 minutes, washed and resuspended in a MACS buffer medium and filtered at 70 μm, and finally labeled with the viability marker DAPI before passing through flow cytometry.

N[C@@H](Cc1ccc(N(CCCl)CCCl)cc1)C(=O)O [melphalan]
viability at 10 µM (D+7): 5%
viability at 10 µM (D+11): < 5%
viability at 10 µM (D+14): < 10%
response to treatment of plasma cells within spheroids (melphalan 10 μM): strong response
